Measured values taken from ChEMBL document CHEMBL2086270, “Rational Design, Synthesis, and SAR of a Novel Thiazolopyrimidinone Series of Selective PI3K-beta Inhibitors” (ACS Med Chem Lett, 2012).

Tests used:
[1] = biological target: T1, Phosphatidylinositol 4,5-bisphosphate 3-kinase catalytic subunit delta isoform (Homo sapiens, UniProt O00329); experiment: Inhibition of PI3K delta by continuous TR-FRET assay
T1 sequence (O00329 whole entry): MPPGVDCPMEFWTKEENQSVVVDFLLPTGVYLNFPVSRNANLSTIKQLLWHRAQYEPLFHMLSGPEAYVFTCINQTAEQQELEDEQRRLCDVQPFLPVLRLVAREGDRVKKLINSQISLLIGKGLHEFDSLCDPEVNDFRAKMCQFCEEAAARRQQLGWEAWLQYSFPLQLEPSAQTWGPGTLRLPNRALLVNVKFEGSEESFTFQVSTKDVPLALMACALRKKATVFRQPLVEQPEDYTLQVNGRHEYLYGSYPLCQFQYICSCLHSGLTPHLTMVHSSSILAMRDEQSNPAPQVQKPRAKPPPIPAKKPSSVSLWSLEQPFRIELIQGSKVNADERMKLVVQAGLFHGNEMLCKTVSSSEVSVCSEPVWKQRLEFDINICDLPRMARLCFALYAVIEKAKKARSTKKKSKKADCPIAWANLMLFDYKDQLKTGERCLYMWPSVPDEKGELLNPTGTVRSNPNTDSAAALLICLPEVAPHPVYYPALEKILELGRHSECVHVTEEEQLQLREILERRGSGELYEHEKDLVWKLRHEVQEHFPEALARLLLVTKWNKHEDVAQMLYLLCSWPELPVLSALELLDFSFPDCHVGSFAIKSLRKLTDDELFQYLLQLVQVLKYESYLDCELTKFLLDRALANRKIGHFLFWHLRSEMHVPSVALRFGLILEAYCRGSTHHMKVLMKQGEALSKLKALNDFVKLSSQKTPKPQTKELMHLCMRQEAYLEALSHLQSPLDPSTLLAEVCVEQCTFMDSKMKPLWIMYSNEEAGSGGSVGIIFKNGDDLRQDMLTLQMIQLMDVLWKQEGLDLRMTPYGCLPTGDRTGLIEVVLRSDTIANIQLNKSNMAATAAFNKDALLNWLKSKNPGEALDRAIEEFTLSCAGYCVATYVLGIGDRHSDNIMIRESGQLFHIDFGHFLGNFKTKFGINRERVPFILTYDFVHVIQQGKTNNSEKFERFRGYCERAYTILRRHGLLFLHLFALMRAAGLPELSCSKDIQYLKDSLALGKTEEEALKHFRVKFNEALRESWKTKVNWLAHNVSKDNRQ

[2] = biological target: T2, Phosphatidylinositol 4,5-bisphosphate 3-kinase catalytic subunit beta isoform (Homo sapiens, UniProt P42338); experiment: Inhibition of PI3K beta by continuous TR-FRET assay
T2 sequence (P42338 whole entry, canonical isoform): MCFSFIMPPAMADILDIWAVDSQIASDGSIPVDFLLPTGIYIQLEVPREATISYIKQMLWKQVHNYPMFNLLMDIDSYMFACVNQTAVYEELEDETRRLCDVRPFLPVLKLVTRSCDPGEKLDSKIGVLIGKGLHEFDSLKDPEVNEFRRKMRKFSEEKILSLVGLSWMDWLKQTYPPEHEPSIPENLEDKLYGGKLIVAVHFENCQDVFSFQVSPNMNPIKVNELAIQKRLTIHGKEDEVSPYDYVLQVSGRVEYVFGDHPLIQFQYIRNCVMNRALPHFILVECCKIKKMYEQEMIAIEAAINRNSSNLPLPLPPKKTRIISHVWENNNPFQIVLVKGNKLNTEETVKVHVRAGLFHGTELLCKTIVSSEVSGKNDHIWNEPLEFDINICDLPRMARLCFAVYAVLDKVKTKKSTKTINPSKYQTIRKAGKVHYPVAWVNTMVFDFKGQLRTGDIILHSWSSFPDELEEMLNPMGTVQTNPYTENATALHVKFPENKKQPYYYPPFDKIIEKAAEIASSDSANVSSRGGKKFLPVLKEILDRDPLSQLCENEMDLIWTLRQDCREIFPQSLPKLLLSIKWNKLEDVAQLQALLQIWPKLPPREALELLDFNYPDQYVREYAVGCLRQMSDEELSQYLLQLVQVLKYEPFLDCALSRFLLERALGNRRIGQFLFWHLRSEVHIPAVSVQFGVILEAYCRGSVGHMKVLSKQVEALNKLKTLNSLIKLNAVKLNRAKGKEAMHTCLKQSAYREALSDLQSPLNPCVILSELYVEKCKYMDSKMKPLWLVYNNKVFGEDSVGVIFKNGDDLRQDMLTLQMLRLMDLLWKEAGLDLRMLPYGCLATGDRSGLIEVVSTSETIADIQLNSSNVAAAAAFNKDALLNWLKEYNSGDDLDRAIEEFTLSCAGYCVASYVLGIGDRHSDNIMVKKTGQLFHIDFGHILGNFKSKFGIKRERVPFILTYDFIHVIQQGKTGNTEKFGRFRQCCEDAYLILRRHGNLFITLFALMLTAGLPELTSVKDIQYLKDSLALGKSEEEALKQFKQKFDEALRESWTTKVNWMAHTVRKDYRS

[3] = biological target: Phosphatidylinositol 4,5-bisphosphate 3-kinase catalytic subunit gamma isoform (Homo sapiens, UniProt P48736); experiment: Inhibition of PI3K gamma by continuous TR-FRET assay
Sequence of Phosphatidylinositol 4,5-bisphosphate 3-kinase catalytic subunit gamma isoform (P48736 whole entry, canonical isoform): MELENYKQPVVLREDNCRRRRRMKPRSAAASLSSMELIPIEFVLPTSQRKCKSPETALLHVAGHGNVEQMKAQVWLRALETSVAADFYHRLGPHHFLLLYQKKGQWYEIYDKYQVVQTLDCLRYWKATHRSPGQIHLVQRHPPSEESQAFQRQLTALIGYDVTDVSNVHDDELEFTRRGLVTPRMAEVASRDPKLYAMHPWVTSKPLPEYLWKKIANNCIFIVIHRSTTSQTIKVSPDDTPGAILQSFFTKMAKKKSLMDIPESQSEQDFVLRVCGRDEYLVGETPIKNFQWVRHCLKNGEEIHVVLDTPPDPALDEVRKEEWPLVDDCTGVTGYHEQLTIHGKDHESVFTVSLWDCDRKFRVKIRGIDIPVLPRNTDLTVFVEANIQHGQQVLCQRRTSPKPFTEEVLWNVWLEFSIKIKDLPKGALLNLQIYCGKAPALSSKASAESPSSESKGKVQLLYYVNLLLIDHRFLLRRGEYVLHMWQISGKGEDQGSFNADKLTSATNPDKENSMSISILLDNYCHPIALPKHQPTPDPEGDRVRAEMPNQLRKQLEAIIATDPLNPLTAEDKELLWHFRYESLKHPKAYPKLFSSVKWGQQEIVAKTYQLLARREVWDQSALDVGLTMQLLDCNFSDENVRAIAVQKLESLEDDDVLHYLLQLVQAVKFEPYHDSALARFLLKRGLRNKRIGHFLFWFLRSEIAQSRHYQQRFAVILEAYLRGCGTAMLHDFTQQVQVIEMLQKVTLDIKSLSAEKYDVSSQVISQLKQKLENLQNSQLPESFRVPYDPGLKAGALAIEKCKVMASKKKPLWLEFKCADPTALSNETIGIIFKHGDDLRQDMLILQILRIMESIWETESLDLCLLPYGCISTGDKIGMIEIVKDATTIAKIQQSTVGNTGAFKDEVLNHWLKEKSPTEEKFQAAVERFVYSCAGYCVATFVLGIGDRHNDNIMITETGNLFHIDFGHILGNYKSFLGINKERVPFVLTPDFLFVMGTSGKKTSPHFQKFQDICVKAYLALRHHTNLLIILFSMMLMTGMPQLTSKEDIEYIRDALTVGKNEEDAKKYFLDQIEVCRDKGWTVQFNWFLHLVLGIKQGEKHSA

[4] = biological target: Phosphatidylinositol 4,5-bisphosphate 3-kinase catalytic subunit alpha isoform (Homo sapiens, UniProt P42336); experiment: Inhibition of PI3K alpha by continuous TR-FRET assay
Sequence of Phosphatidylinositol 4,5-bisphosphate 3-kinase catalytic subunit alpha isoform (P42336 whole entry, canonical isoform): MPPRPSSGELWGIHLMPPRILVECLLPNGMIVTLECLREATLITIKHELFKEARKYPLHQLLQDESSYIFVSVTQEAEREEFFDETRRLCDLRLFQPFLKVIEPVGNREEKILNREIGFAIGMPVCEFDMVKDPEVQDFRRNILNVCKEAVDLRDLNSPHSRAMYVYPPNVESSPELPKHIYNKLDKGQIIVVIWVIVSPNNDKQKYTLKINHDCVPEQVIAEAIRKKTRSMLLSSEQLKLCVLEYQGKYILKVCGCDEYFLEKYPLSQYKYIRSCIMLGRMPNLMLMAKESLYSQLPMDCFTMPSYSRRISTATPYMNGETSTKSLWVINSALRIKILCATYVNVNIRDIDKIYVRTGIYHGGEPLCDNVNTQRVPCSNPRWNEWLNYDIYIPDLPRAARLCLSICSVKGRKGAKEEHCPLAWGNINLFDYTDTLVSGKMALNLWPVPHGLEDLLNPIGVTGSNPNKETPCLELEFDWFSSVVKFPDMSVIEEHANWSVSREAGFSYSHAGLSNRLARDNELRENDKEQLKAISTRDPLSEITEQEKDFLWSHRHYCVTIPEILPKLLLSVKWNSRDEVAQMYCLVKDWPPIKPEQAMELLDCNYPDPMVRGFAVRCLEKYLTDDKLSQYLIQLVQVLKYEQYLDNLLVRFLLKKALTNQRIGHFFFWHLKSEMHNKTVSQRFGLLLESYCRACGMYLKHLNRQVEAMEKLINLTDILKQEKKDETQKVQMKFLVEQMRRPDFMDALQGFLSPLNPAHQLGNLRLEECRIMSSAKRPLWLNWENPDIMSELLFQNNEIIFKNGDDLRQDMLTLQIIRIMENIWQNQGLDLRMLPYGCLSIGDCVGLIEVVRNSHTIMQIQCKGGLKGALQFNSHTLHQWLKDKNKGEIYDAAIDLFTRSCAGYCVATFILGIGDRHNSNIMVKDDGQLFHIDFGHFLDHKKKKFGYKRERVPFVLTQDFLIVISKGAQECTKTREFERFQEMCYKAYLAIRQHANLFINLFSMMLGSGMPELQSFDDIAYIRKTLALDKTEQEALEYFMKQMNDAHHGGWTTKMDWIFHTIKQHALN

[5] = Clearance in CD mouse at 0.3 mg/kg, iv; type: ADME, organism-based; design: dose 0.3 mg/kg, route intravenous; details: in vivo
[6] = Half life in CD mouse at 0.3 mg/kg, iv; type: ADME, organism-based; design: dose 0.3 mg/kg, route intravenous; details: in vivo
[7] = system: Mus musculus; experiment: Dose normalized AUC in CD mouse at 100 mg/kg, po; type: ADME, organism-based; design: dose 100 mg/kg, route oral; details: in vivo
[8] = biological target: T2, Phosphatidylinositol 4,5-bisphosphate 3-kinase catalytic subunit beta isoform; experiment: Inhibition of PI3K beta in human PTEN-deficient MDA-MB-468 cells assessed as inhibition of Akt Ser473 phosphorylation; type: cell-based
[9] = Oral bioavailability in CD mouse at 100 mg/kg; type: ADME, organism-based; details: in vivo
[10] = system: MDA-MB-468; experiment: Antiproliferative activity against PTEN-deficient human MDA-MB-468 cells; type: functional
[11] = Volume of distribution at steady state in CD mouse at 0.3 mg/kg, iv; type: ADME, organism-based; design: dose 0.3 mg/kg, route intravenous; details: in vivo, read-out: Vdss

SMILES: Cc1c(Cn2c(CO)nc(=O)c3sc(N4CCOCC4)nc32)cccc1C(F)(F)F
- IC50 [1]: 3 nM
- IC50 [2]: 0.2 nM
- IC50 [3]: 250 nM
- IC50 [4]: 630 nM

SMILES: Cc1c(Cn2c(C3CC3)nc(=O)c3sc(N4CCOCC4)nc32)cccc1C(F)(F)F
- IC50 [1]: 16 nM
- IC50 [2]: 0.5 nM
- clearance [5]: 48.6 mL/min/kg
- half-life [6]: 0.75 h
- AUC/dose [7]: 192 ng/(hr.mL.mg.kg)
- IC50 [3]: 1000 nM
- EC50 [8]: 9 nM
- bioavailability [9]: 54%
- GI50 [10]: 43 nM
- Vd [11]: 2.6 L/kg
- IC50 [4]: 1300 nM

SMILES: Cc1c(Cl)cccc1Cn1c(=S)[nH]c(=O)c2sc(N3CCOCC3)nc21
- IC50 [1]: 50 nM
- IC50 [2]: 5 nM
- IC50 [3]: > 3200 nM
- IC50 [4]: 2000 nM

SMILES: Cc1c(Cn2c(CN)nc(=O)c3sc(N4CCOCC4)nc32)cccc1C(F)(F)F
- IC50 [1]: 160 nM
- IC50 [2]: 3 nM
- IC50 [3]: > 7900 nM
- IC50 [4]: > 2500 nM

SMILES: O=c1ncn(Cc2ccsc2Cl)c2nc(N3CCOCC3)sc12
- IC50 [1]: 2500 nM
- IC50 [2]: 790 nM
- IC50 [3]: 4000 nM
- IC50 [4]: 3200 nM

SMILES: O=c1ncn(Cc2ccccc2)c2nc(N3CCOCC3)sc12
- IC50 [1]: 2000 nM
- IC50 [2]: 320 nM
- IC50 [3]: 6300 nM
- IC50 [4]: 7900 nM

SMILES: Cc1c(Cl)cccc1Cn1c(=O)[nH]c(=O)c2sc(N3CCOCC3)nc21
- IC50 [1]: 500 nM
- IC50 [2]: 8 nM
- IC50 [3]: > 6300 nM
- IC50 [4]: 50000 nM

SMILES: CC(c1ccccc1)n1cnc(=O)c2sc(N3CCOCC3)nc21 (stereo not drawn)
- IC50 [1]: 500 nM
- IC50 [2]: 400 nM
- IC50 [3]: 5000 nM
- IC50 [4]: > 4000 nM

SMILES: Cc1ccccc1Cn1cnc(=O)c2sc(N3CCOCC3)nc21
- IC50 [1]: 250 nM
- IC50 [2]: 25 nM
- IC50 [3]: 2500 nM
- IC50 [4]: 2500 nM

SMILES: Cc1c(Cl)cccc1Cn1c(SCC(=O)O)nc(=O)c2sc(N3CCOCC3)nc21
- IC50 [1]: 2 nM
- IC50 [2]: 0.05 nM
- IC50 [3]: 160 nM
- IC50 [4]: 400 nM

SMILES: Cc1c(Cn2c(-c3ccccc3)nc(=O)c3sc(N4CCOCC4)nc32)cccc1C(F)(F)F
- IC50 [1]: 500 nM
- IC50 [2]: 50 nM
- IC50 [3]: 4000 nM
- IC50 [4]: > 3200 nM

SMILES: CCc1nc(=O)c2sc(N3CCOCC3)nc2n1Cc1cccc(C(F)(F)F)c1C
- IC50 [1]: 13 nM
- IC50 [2]: 0.5 nM
- IC50 [3]: 1300 nM
- EC50 [8]: 16 nM
- GI50 [10]: 23 nM
- IC50 [4]: > 4000 nM

SMILES: Cc1c(Cl)cccc1Cn1c(CO)nc(=O)c2sc(N3CCOCC3)nc21
- IC50 [1]: 2 nM
- IC50 [2]: 0.1 nM
- clearance [5]: 29.4 mL/min/kg
- half-life [6]: 1.9 h
- AUC/dose [7]: 264 ng/(hr.mL.mg.kg)
- IC50 [3]: 250 nM
- EC50 [8]: 6 nM
- bioavailability [9]: 21%
- GI50 [10]: 8 nM
- Vd [11]: 3.35 L/kg
- IC50 [4]: 500 nM

SMILES: O=c1ncn(Cc2cccc(Cl)c2)c2nc(N3CCOCC3)sc12
- IC50 [1]: 320 nM
- IC50 [2]: 79 nM
- IC50 [3]: > 790 nM
- IC50 [4]: > 3200 nM

SMILES: Cc1c(Cl)cccc1Cn1c(C)nc(=O)c2sc(N3CCOCC3)nc21
- IC50 [1]: 10 nM
- IC50 [2]: 0.5 nM
- IC50 [3]: 1000 nM
- EC50 [8]: 19 nM
- GI50 [10]: 32 nM
- IC50 [4]: 2000 nM

SMILES: O=c1ncn(CCc2ccccc2)c2nc(N3CCOCC3)sc12
- IC50 [1]: 1000 nM
- IC50 [2]: 790 nM
- IC50 [3]: 3200 nM
- IC50 [4]: > 2000 nM

SMILES: Cc1c(Cn2c(Cc3ccccc3)nc(=O)c3sc(N4CCOCC4)nc32)cccc1C(F)(F)F
- IC50 [1]: 63 nM
- IC50 [2]: 3 nM
- IC50 [3]: 2000 nM
- IC50 [4]: 2500 nM

SMILES: O=c1ncn(Cc2cccc(Cl)c2Cl)c2nc(N3CCOCC3)sc12
- IC50 [1]: 79 nM
- IC50 [2]: 10 nM
- IC50 [3]: 1300 nM
- IC50 [4]: 1000 nM

SMILES: COc1nc(=O)c2sc(N3CCOCC3)nc2n1Cc1cccc(Cl)c1C
- IC50 [1]: 10 nM
- IC50 [2]: 0.3 nM
- IC50 [3]: 400 nM
- EC50 [8]: 6 nM
- GI50 [10]: 21 nM
- IC50 [4]: 1600 nM

SMILES: CSc1nc(=O)c2sc(N3CCOCC3)nc2n1Cc1cccc(Cl)c1C
- IC50 [1]: 10 nM
- IC50 [2]: 0.3 nM
- IC50 [3]: 2500 nM
- IC50 [4]: 2000 nM

SMILES: O=c1ncn(Cc2ccccc2Cl)c2nc(N3CCOCC3)sc12
- IC50 [1]: > 790 nM
- IC50 [2]: 160 nM
- IC50 [3]: 7900 nM
- IC50 [4]: 2500 nM

SMILES: Cc1c(Cl)cccc1Cn1c(N)nc(=O)c2sc(N3CCOCC3)nc21
- IC50 [1]: 3 nM
- IC50 [2]: 0.2 nM
- IC50 [3]: 500 nM
- EC50 [8]: 3 nM
- GI50 [10]: 26 nM
- IC50 [4]: 250 nM

SMILES: Cc1c(Cn2cnc(=O)c3sc(N4CCOCC4)nc32)cccc1C(F)(F)F
- IC50 [1]: 63 nM
- IC50 [2]: 3 nM
- IC50 [3]: 1600 nM
- IC50 [4]: 4000 nM

SMILES: Cc1c(Cl)cccc1Cn1cnc(=O)c2sc(N3CCOCC3)nc21
- IC50 [1]: 40 nM
- IC50 [2]: 3 nM
- IC50 [3]: 2500 nM
- IC50 [4]: 2500 nM
